Source: PubChem BioAssay (NCI)
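Growth conditions: 96-well plates. Treatment: test compound, 48 hours, 5 concentrations. Analysis: linear interpolation between bracketing concentrations; unreached endpoints set to highest concentration. Here, GI50 denotes the concentration required for 50% inhibition of growth. The concentration for full growth arrest is given as TGI.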

Columns and labels:
Experiment in all cases: NCI-60 cell line screen, 48 h
ACHN renal = tested on: ACHN renal
DLD-1 colon = tested on: DLD-1 colon
DMS 273 small cell lung = tested on: DMS 273 small cell lung
HL-60(TB) leukemia = tested on: HL-60(TB) leukemia
IGROV1 ovarian = tested on: IGROV1 ovarian
KM20L2 colon = tested on: KM20L2 colon
OVCAR-8 ovarian = tested on: OVCAR-8 ovarian
SF-268 CNS = tested on: SF-268 CNS
TK-10 renal = tested on: TK-10 renal
UACC-62 melanoma = tested on: UACC-62 melanoma
XF 498 CNS = tested on: XF 498 CNS
BT-549 breast = tested on: BT-549 breast

Compound | TGI (ACHN renal) | TGI (DLD-1 colon) | TGI (DMS 273 small cell lung) | TGI (HL-60(TB) leukemia) | TGI (IGROV1 ovarian) | TGI (KM20L2 colon) | TGI (OVCAR-8 ovarian) | TGI (SF-268 CNS) | TGI (TK-10 renal) | TGI (UACC-62 melanoma) | TGI (XF 498 CNS) | TGI (BT-549 breast) | GI50 (ACHN renal) | GI50 (BT-549 breast) | GI50 (HL-60(TB) leukemia) | GI50 (OVCAR-8 ovarian) | GI50 (SF-268 CNS) | GI50 (TK-10 renal) | GI50 (IGROV1 ovarian) | GI50 (UACC-62 melanoma)
C/C(=N\NC(=S)N1CCC(N2CCCCC2)CC1)c1ccccn1 | 5.65 µM | > 100 µM | 9.43 µM | > 21 µM | 12.3 µM | 14.2 µM | 11.7 µM | 12.9 µM | 6.29 µM | 10.7 µM | 19.6 µM | – | – | – | – | – | – | – | – | –
CCOC(=O)/C=C/c1c(C)[nH]c(=O)[nH]c1=O | – | > 250 µM | > 250 µM | > 250 µM | > 250 µM | > 250 µM | > 250 µM | > 250 µM | – | > 250 µM | > 250 µM | – | – | – | – | – | – | – | – | –
CCOC(=O)NC(Nc1cc(Cl)ccc1OC)(C(F)(F)F)C(F)(F)F | > 100 µM | – | – | > 100 µM | > 100 µM | – | – | > 100 µM | > 100 µM | > 100 µM | – | > 100 µM | – | – | – | – | – | – | – | –
CN=C(Nc1ccc(OC)c2ccccc12)SC | > 10 µM | – | – | > 10 µM | > 10 µM | – | > 10 µM | > 10 µM | > 10 µM | > 10 µM | – | > 10 µM | – | – | – | – | – | – | – | –
O=c1[nH]c(SCc2cccc([N+](=O)[O-])c2)nc2nc[nH]c12 | > 100 µM | – | – | > 100 µM | > 100 µM | – | > 100 µM | > 100 µM | > 100 µM | > 100 µM | – | > 100 µM | – | – | – | – | – | – | – | –
O=c1nc2ccc([N+](=O)[O-])cc2[n+]([O-])[nH]1 | > 100 µM | – | – | > 100 µM | > 100 µM | – | > 100 µM | > 100 µM | > 100 µM | > 100 µM | – | > 100 µM | – | – | – | – | – | – | – | –
c1ccc2c(c1)c1ccccc1n2Cn1c2ccccc2c2ccccc21 | > 100 µM | – | – | > 100 µM | > 100 µM | – | > 100 µM | > 100 µM | > 100 µM | > 100 µM | – | > 100 µM | – | – | – | – | – | – | – | –
c1cc2c3c(c1)c1cc4c(cc1c[n+]3CC2)OCO4 | – | 121 µM | 30.5 µM | 24.7 µM | 63.5 µM | 49.7 µM | 25.3 µM | 5.26 µM | – | 16 µM | 10.9 µM | – | – | – | – | – | – | – | – | –
COc1cc(-c2ccc(N=Nc3ccc4c(S(=O)(=O)O)cc(S(=O)(=O)O)c(N)c4c3O)c(OC)c2)ccc1N=Nc1ccc2c(S(=O)(=O)O)cc(S(=O)(=O)O)c(N)c2c1O | – | > 100 µM | > 100 µM | > 62.6 µM | > 100 µM | > 100 µM | > 100 µM | > 100 µM | – | > 100 µM | > 100 µM | – | – | – | – | – | – | – | – | –
COc1cccc2c1C(=O)c1c(O)c3c(c(O)c1C2=O)C[C@@](O)(C(=O)COC(=O)c1ccccc1)C[C@@H]3OC1CC(N)C(O)C(C)O1 (some centres undefined) | 0.457 µM | – | – | 0.69 µM | – | – | 1.18 µM | 1.34 µM | 0.879 µM | – | – | 2.32 µM | 0.0925 µM | 0.7 µM | 0.0679 µM | 0.154 µM | 0.173 µM | 0.151 µM | – | –
C/C(=N\NC(=O)c1ccc(Cl)cc1)c1nc2ncccc2[nH]1 | 44.7 µM | – | – | 70.2 µM | > 100 µM | – | 58.6 µM | > 100 µM | 64.9 µM | 55.4 µM | – | 85.5 µM | – | – | – | – | – | – | – | –
O=C(/C=C1\Sc2ccccc2N=C1CC(=O)c1ccccc1)c1ccccc1 | 72.5 µM | – | – | 22.3 µM | 37.4 µM | – | 37 µM | 45.8 µM | 45.2 µM | – | – | 37.9 µM | – | – | – | – | – | – | – | –
O=c1oc(-c2ccc(O)cc2)cc2cc(O)ccc12 | > 100 µM | – | – | 48.6 µM | > 100 µM | – | > 100 µM | 97.6 µM | > 100 µM | – | – | 62.1 µM | – | – | – | – | – | – | – | –
O=C(NN1C(=O)C(Cl)C1c1cccc([N+](=O)[O-])c1)c1ccccc1O (centres undefined) | – | – | – | > 100 µM | > 100 µM | > 100 µM | > 100 µM | > 100 µM | > 100 µM | > 100 µM | > 100 µM | – | – | – | – | – | – | – | – | –
COc1ccc(C2=[S+]C(c3ccccc3)(c3ccccc3)c3ccccc32)cc1 | 86.1 µM | – | – | 51.1 µM | > 100 µM | – | > 100 µM | > 100 µM | 73.3 µM | 53.6 µM | – | 53.9 µM | – | – | – | – | – | – | – | –
O=C(N/N=C\c1cccc2ccccc12)Nc1ccccc1 | – | – | – | – | > 100 µM | – | > 100 µM | – | > 100 µM | > 100 µM | – | > 100 µM | – | – | – | – | – | – | – | –
c1ccc2c(c1)NCc1cc3ccccc3nc1O2 | – | > 100 µM | > 100 µM | > 100 µM | > 100 µM | – | > 100 µM | > 100 µM | – | > 100 µM | > 100 µM | – | – | – | – | – | – | – | – | –
N#[N+]c1c([O-])c2ccccc2c2ccccc12 | > 100 µM | – | – | > 100 µM | > 100 µM | – | > 100 µM | > 100 µM | > 100 µM | 69.7 µM | – | > 100 µM | – | – | – | – | – | – | – | –
Cc1cn(-c2cccc(NC(=O)c3ccc(C)c(Nc4nccc(-c5cccnc5)n4)c3)c2)cn1 | 3.17 µM | – | – | 19.8 µM | 3.92 µM | – | 2.5 µM | 9.58 µM | 3.6 µM | 3.35 µM | – | 3.11 µM | 1.69 µM | 1.49 µM | 4.61 µM | 1.1 µM | 2.92 µM | 2.04 µM | 2.08 µM | 1.65 µM
Cc1ccc(Cl)cc1N=NC(=O)NNc1cc(Cl)ccc1C | – | – | – | > 100 µM | 38.3 µM | – | – | – | – | 24.2 µM | – | 43.9 µM | – | – | – | – | – | – | – | –
Cc1cc(N/N=C/c2nc(-c3ccc(Cl)cc3)oc2C)c2cc(Br)ccc2n1 | 5.01 µM | – | – | 5.44 µM | 16.7 µM | – | 5.97 µM | 28.2 µM | 3.49 µM | 4.43 µM | – | 19.9 µM | 2.25 µM | 6.91 µM | 2.2 µM | 2.41 µM | 3.7 µM | 1.8 µM | 3.14 µM | 2.02 µM
O=C1C(CO)=C[C@H](O)[C@H]2O[C@@H]12 | – | 227 µM | 485 µM | 253 µM | 473 µM | > 625 µM | 325 µM | 298 µM | – | 215 µM | 359 µM | – | – | – | – | – | – | – | – | –
O=C1CCC[C@H]2O[C@@H](COC(=O)c3ccccc3)C[C@H]2O1 | > 100 µM | – | – | > 100 µM | > 100 µM | – | > 100 µM | > 100 µM | – | > 100 µM | – | – | – | – | – | – | – | – | – | –
